“And” between values parts separate entries of the source, which are not always exact repeats. Identical values can stand only once. Like-named read-outs stand apart in the source and are kept apart here.
Columns and labels:
[1] = target: HsProRS (Homo sapiens, UniProt P07814); assay: TR-FRET ligand displacement assay with tracer MAT379 (CoraFluor-1-Halo and anti-His6 antibody formats); format: binding; design: made in house; host or cells: E. coli SoluBL-21; conditions: for TR-FRET dose-response, normalized signal (SI Fig 11): individual replicates
Sequence of HsProRS (P07814 996-1512): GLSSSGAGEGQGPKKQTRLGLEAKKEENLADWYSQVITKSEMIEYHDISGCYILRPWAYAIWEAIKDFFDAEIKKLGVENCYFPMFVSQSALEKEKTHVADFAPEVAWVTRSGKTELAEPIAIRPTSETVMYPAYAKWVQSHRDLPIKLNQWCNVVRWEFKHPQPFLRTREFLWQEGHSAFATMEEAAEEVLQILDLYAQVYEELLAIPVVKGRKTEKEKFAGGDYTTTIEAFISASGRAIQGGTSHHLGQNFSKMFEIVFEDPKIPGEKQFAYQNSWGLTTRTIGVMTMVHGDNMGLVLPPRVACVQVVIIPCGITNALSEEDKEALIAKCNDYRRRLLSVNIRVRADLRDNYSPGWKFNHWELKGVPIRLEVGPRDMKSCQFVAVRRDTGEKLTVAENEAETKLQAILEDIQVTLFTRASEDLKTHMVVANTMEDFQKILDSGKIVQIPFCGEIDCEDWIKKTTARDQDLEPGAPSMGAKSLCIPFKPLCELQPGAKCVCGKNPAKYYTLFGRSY

[2] = target: T1, PfcProRS (Plasmodium falciparum, UniProt Q8I5R7); format: binding; conditions: single replicates
T1 construct: made in house; host or cells: E. coli SoluBL-21
T1 sequence (Q8I5R7 249-746): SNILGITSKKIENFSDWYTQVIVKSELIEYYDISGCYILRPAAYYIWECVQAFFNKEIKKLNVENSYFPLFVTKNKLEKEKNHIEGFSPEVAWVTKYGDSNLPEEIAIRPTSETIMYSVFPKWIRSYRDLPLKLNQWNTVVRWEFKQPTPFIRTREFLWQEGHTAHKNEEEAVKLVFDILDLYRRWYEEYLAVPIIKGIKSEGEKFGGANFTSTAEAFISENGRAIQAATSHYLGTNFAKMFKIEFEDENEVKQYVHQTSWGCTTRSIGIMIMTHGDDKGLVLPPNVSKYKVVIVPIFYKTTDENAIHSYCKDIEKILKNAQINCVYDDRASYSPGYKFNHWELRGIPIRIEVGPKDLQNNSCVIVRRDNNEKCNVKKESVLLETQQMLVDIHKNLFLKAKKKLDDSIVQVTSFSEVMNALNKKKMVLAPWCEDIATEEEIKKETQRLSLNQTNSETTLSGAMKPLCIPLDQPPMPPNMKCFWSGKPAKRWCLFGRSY

NCC1CCN(C(=O)Nc2nccnc2C(=O)NC2Cc3ccccc3C2)CC1 [compound 10] was tested, and the IC50 [1] was over 10 µM, the Kd ([1]; HsProRS (KD [nM]) + 100 μM proline mean, + 100 μM proline) was 1360 nM and the “normalized TR-FRET ligand displacement signal, dose-response replicates (SI Fig 6)” value ([1]; Log[inhibitor] (M) -5.000) was 7.52E-01 and 7.79E-01 and 7.62E-01. The “TR-FRET dose-response, normalized signal (SI Fig 11)” value ([1]; Log[inhibitor] (M) -5.000) was 6.05E-01 and 5.95E-01 and 6.36E-01, the “normalized TR-FRET ligand displacement signal, dose-response replicates (SI Fig 6)” value ([1]; Log[inhibitor] (M) -5.301) was 8.20E-01 and 8.88E-01 and 8.92E-01 and the “TR-FRET dose-response, normalized signal (SI Fig 11)” value ([1]; Log[inhibitor] (M) -5.301) was 6.96E-01 and 7.22E-01 and 7.09E-01. For the same molecule, the “normalized TR-FRET ligand displacement signal, dose-response replicates (SI Fig 6)” value ([1]; Log[inhibitor] (M) -5.601) was 9.12E-01 (2×) and 9.52E-01, the “TR-FRET dose-response, normalized signal (SI Fig 11)” value ([1]; Log[inhibitor] (M) -5.601) was 8.44E-01 and 7.94E-01 and 8.38E-01 and the “normalized TR-FRET ligand displacement signal, dose-response replicates (SI Fig 6)” value ([1]; Log[inhibitor] (M) -5.904) was 1.12E+00 and 9.84E-01 and 8.91E-01. For the same molecule, the “TR-FRET dose-response, normalized signal (SI Fig 11)” value ([1]; Log[inhibitor] (M) -5.904) was 8.92E-01 and 8.20E-01 and 8.24E-01, the “normalized TR-FRET ligand displacement signal, dose-response replicates (SI Fig 6)” value ([1]; Log[inhibitor] (M) -6.208) was 9.97E-01 and 8.76E-01 and 9.90E-01 and the “TR-FRET dose-response, normalized signal (SI Fig 11)” value ([1]; Log[inhibitor] (M) -6.208) was 8.69E-01 and 8.29E-01 and 9.13E-01. The “normalized TR-FRET ligand displacement signal, dose-response replicates (SI Fig 6)” value ([1]; Log[inhibitor] (M) -6.509) was 9.61E-01 and 1.04E+00 and 9.10E-01, the “TR-FRET dose-response, normalized signal (SI Fig 11)” value ([1]; Log[inhibitor] (M) -6.509) was 9.27E-01 and 8.13E-01 and 9.47E-01 and the “normalized TR-FRET ligand displacement signal, dose-response replicates (SI Fig 6)” value ([1]; Log[inhibitor] (M) -6.796) was 1.04E+00 and 1.06E+00 and 1.01E+00. The “TR-FRET dose-response, normalized signal (SI Fig 11)” value ([1]; Log[inhibitor] (M) -6.796) was 9.41E-01 and 8.80E-01 and 8.81E-01, the “normalized TR-FRET ligand displacement signal, dose-response replicates (SI Fig 6)” value ([1]; Log[inhibitor] (M) -7.108) was 1.05E+00 and 9.51E-01 and 1.07E+00 and the “TR-FRET dose-response, normalized signal (SI Fig 11)” value ([1]; Log[inhibitor] (M) -7.108) was 8.72E-01 and 9.00E-01 and 8.74E-01. For the same molecule, the “normalized TR-FRET ligand displacement signal, dose-response replicates (SI Fig 6)” value ([1]; Log[inhibitor] (M) -7.409) was 8.85E-01 and 9.14E-01 and 8.87E-01, the “TR-FRET dose-response, normalized signal (SI Fig 11)” value ([1]; Log[inhibitor] (M) -7.409) was 8.90E-01 and 8.97E-01 and 8.75E-01 and the “normalized TR-FRET ligand displacement signal, dose-response replicates (SI Fig 6)” value ([1]; Log[inhibitor] (M) -7.710) was 9.64E-01 (2×) and 8.88E-01. The “TR-FRET dose-response, normalized signal (SI Fig 11)” value ([1]; Log[inhibitor] (M) -7.710) was 8.83E-01 and 8.58E-01 and 9.38E-01, the “normalized TR-FRET ligand displacement signal, dose-response replicates (SI Fig 6)” value ([1]; Log[inhibitor] (M) -8.000) was 9.97E-01 and 1.02E+00 and 9.70E-01 and the “TR-FRET dose-response, normalized signal (SI Fig 11)” value ([1]; Log[inhibitor] (M) -8.000) was 9.01E-01 and 9.27E-01 and 9.34E-01. The “normalized TR-FRET ligand displacement signal, dose-response replicates (SI Fig 6)” value ([1]; Log[inhibitor] (M) -8.301) was 9.79E-01 and 9.25E-01 and 8.62E-01, the “TR-FRET dose-response, normalized signal (SI Fig 11)” value ([1]; Log[inhibitor] (M) -8.301) was 8.32E-01 and 8.76E-01 and 8.86E-01 and the “normalized TR-FRET ligand displacement signal, dose-response replicates (SI Fig 6)” value ([1]; Log[inhibitor] (M) -8.602) was 1.04E+00 and 9.88E-01 and 8.85E-01. For the same molecule, the “TR-FRET dose-response, normalized signal (SI Fig 11)” value ([1]; Log[inhibitor] (M) -8.602) was 8.91E-01 and 9.03E-01 and 9.02E-01, the “normalized TR-FRET ligand displacement signal, dose-response replicates (SI Fig 6)” value ([1]; Log[inhibitor] (M) -9.000) was 9.73E-01 and 8.88E-01 and 1.05E+00 and the “TR-FRET dose-response, normalized signal (SI Fig 11)” value ([1]; Log[inhibitor] (M) -9.000) was 9.24E-01 and 8.78E-01 and 8.94E-01. For the same molecule, the “normalized TR-FRET ligand displacement signal, dose-response replicates (SI Fig 6)” value ([1]; Log[inhibitor] (M) -9.301) was 9.62E-01 and 9.69E-01 and 9.04E-01, the “TR-FRET dose-response, normalized signal (SI Fig 11)” value ([1]; Log[inhibitor] (M) -9.301) was 9.15E-01 and 8.48E-01 and 8.61E-01 and the “HsProRS % signal at 10 μM” value ([1]; no added proline/ATP (-), 10 μM) was 61.2%. For the same molecule, the “dose-response signal (normalized), SI Fig 8” value ([2]; Log[inhibitor] (M) -5.000) was 6.00E-01 and 6.56E-01 and 6.73E-01, the “dose-response signal (normalized), SI Fig 8” value ([2]; Log[inhibitor] (M) -5.301) was 9.19E-01 and 8.61E-01 and 8.50E-01 and the “dose-response signal (normalized), SI Fig 8” value ([2]; Log[inhibitor] (M) -5.601) was 9.17E-01 and 9.92E-01 and 9.34E-01. For the same molecule, the “dose-response signal (normalized), SI Fig 8” value ([2]; Log[inhibitor] (M) -5.904) was 9.34E-01 and 1.02E+00 and 9.14E-01, the “dose-response signal (normalized), SI Fig 8” value ([2]; Log[inhibitor] (M) -6.208) was 1.16E+00 and 1.11E+00 and 8.47E-01 and the “dose-response signal (normalized), SI Fig 8” value ([2]; Log[inhibitor] (M) -6.509) was 1.03E+00 and 1.08E+00 and 9.82E-01. The “dose-response signal (normalized), SI Fig 8” value ([2]; Log[inhibitor] (M) -6.796) was 9.55E-01 and 9.28E-01 and 9.85E-01, the “dose-response signal (normalized), SI Fig 8” value ([2]; Log[inhibitor] (M) -7.108) was 9.16E-01 and 1.02E+00 and 1.03E+00 and the “dose-response signal (normalized), SI Fig 8” value ([2]; Log[inhibitor] (M) -7.409) was 1.06E+00 and 1.03E+00 and 1.09E+00. The “dose-response signal (normalized), SI Fig 8” value ([2]; Log[inhibitor] (M) -7.710) was 8.76E-01 and 1.01E+00 and 9.98E-01, the “dose-response signal (normalized), SI Fig 8” value ([2]; Log[inhibitor] (M) -8.000) was 1.02E+00 and 1.09E+00 and 1.14E+00 and the “dose-response signal (normalized), SI Fig 8” value ([2]; Log[inhibitor] (M) -8.301) was 1.04E+00 (2×) and 9.07E-01. The “dose-response signal (normalized), SI Fig 8” value ([2]; Log[inhibitor] (M) -8.602) was 1.06E+00 and 9.87E-01 and 1.02E+00, the “dose-response signal (normalized), SI Fig 8” value ([2]; Log[inhibitor] (M) -9.000) was 9.95E-01 and 1.10E+00 and 1.11E+00 and the “dose-response signal (normalized), SI Fig 8” value ([2]; Log[inhibitor] (M) -9.301) was 9.71E-01 and 8.41E-01 and 1.04E+00.

— publication PMC9403976, “Elucidating the path to Plasmodium prolyl-tRNA synthetase inhibitors that overcome halofuginone resistance” (Nature Communications, 2022)
